According to article PMC10390775, “CETP inhibitor evacetrapib enters mouse brain tissue” (Frontiers in Pharmacology, 2023):

Key:
[1] = Semi-PBPK three-compartment model of distribution to the brain; set-up: species or system mice
Procedure: A semi-physiological-based pharmacokinetic (PBPK) model was developed to obtain more mechanistic information on the distribution of evacetrapib in the brain. First, a two-compartmental model (i.e., a plasma and a peripheral compartment) with a first-order elimination rate was fitted to describe the kinetics of the compound in plasma ([Mukherjee, 2022]) (Figure 1). Second, a third compartment was added and connected to the plasma compartment (Figure 1). The brain compartment was subdivided into vascular and tissue sub-compartments, with mass balance differential equations describing a distribution in the tissue that can be limited by diffusion as follows ([Shen, 2010]): dABrT/dt=PA∙CBrP−PA∙CBrT/PBr, (9) CBrT=ABrT/VBr1−VBrVF, (10) dABrP/dt=QBrCp−CBrP−PA∙CBrP−PA∙CBrT/PBr, (11) CBrP=ABrP/VBr∙VBrVF∙PF, (12) CBr=ABrT+ABrP/VBr, (13) where ABrT is the amount in the brain tissue, ABrP is the amount in the brain plasma, CBrP the concentration in the brain plasma, CBrT the concentration in the brain tissue subcompartment, CBr the concentration in the brain, Cp the plasma concentration, PA the permeability area product, PBr the brain-to-plasma partition coefficient, PF the plasma fraction of the blood, VBrVF the vascular volume fraction of the brain, VBr the volume of the brain, and QBr plasma flow to the brain.
Several scenarios were tested using this semi-PBPK model and brain concentration data to determine the mechanisms that best explain accumulation in the brain: 1) no permeability (i.e., PA = 0 L/h); 2) a perfusion-limited distribution (PA > 1,000,000 L/h) using the predicted PBr ([Poulin and Haddad, 2011]); 3) a perfusion-limited distribution with a low PBr (fitted); 4) a diffusion-limited distribution (fitted PA) using the predicted PBr; and 5) diffusion-limited distribution (fitted PA) and low PBr (fitted).
We used a semi-physiological three-compartment model to simulate the in vivo data (Figure 1). The parameters for the plasma and peripheral compartments were fitted to the plasma concentration at 40 mg/kg BW (Table 1; Figure 5B) ([Brown et al., 1997]; [Peyret et al., 2010]). Then, four scenarios were simulated assuming the following: a) perfusion-limited distribution with the predicted brain-to-plasma partition coefficient (PBr), b) as in a) with a low PBr, c) diffusion-limited distribution with the predicted PBr, and d) as in c) with low PBr, against the brain concentration data corrected for residual blood as explained in the Methods section. When assuming perfusion-limited distribution, the model could not simulate the observed data (Figure 5A), even when we adjusted for PBr. […] Thus, we propose that evacetrapib enters the brain in a diffusion-limited manner, which could include some form of facilitated transport.

[2] = Rapid equilibrium dialysis, plasma on both sides of the membrane; format: in vitro ADME; settings: after 24 h, preliminary data
Text: One last factor we considered in this study was the mechanism by which evacetrapib is transported into brain tissue. To that effect, toxicokinetic parameters were derived from the blood and brain time courses, which indicate that the drug possibly requires some sort of transporter to reach peripheral compartments, such as the brain, and to clear from brain tissue. […] A possible explanation could be that evacetrapib enters the brain faster than it is cleared out of it, leading to a buildup in brain tissue. […] To determine which mechanisms are involved in evacetrapib distribution to the brain, a semi-PBPK model was developed (parameter values are in Table 1; Figure 5). To this end, we first aimed to determine the brain: plasma partition coefficient of evacetrapib using rapid equilibrium dialysis. […] This may be in line with our in vivo observations considering that only a small fraction of evacetrapib crossed the blood–brain barrier. However, the slow diffusion in our in vitro model is incongruent with the concentrations of evacetrapib found in the brain 2.2 h following intravenous injections. Thus, the implication of transporters cannot be excluded.

[3] = set-up: method as in Small et al., 2015; settings: ref Small et al., 2015; cited from earlier work
[4] = two-compartment model, fitted to plasma concentration at 40 mg/kg BW

Cc1cc(C)c2c(c1)[C@@H](N(Cc1cc(C(F)(F)F)cc(C(F)(F)F)c1)c1nnn(C)n1)CCCN2C[C@H]1CC[C@H](C(=O)O)CC1 [evacetrapib]
Permeability area product (PA) ([1]; fitted, diffusion-limited distribution): 1.1e-05 L/h | Kp ([1]; male, hCETPtg (C57BL/6J background), mouse, intravenous, 40 mg/kg BW, fitted to brain concentrations corrected for residual blood, read-out: Brain:plasma partition coefficient (PBr)): 0.06 | k el ([1]; male, hCETPtg (C57BL/6J background), mouse, intravenous, two-compartment model, fitted to plasma concentration at 40 mg/kg BW, read-out: Elimination constant (Kel) (converted)): 0.000386 s⁻¹ | Apparent plasma volume (Vplasma) [1, 4]: 0.01 L | Peripheral to plasma transfer constant (K21) [1, 4]: 1.21 h⁻¹ | Plasma to peripheral transfer constant (K12) [1, 4]: 2.4 h⁻¹ | Fraction diffused across the dialysis membrane [2]: 2% | logP (octanol to water partition coefficient) [3]: 7.56
